Data set [1] has as its system Fmr1 KO and wildtype NPCs. Briefly: BrdU proliferation assay of cultured NPCs. Type of data set: cell-based, mouse.
Protocol: We used only early passage cells (between passage 4 and 10) and only the same passage numbers of wildtype and Fmr1 KO cells. For each experiment, triplicate wells of cells were analyzed, and results were averaged as one data point (n=1). At least 3 independent biological replicates were used (n=3) for statistical analyses.
We used only early passage cells (between passage 4 and 10) and only the same passage numbers of wild type (WT) and Fmr1 KO cells. For each experiment, triplicate wells of cells were analyzed, and results were averaged as one data point (n=1). At least 3 independent experiments (n=3) were performed and used for statistical analyses for each analysis. To study cell proliferation, we dissociated neural stem cells with trypsin and plated them on poly-L-ornithine and laminin-coated 24 well plate (Scientific fisher, 87721) at a density of 100,000 cells per well in proliferation medium. At 20 h post-plating, 5 μM 5-bromo-2.′-deoxyuridine (BrdU, Sigma-Aldrich) was added into the culture medium for 6 h. NPCs were then washed with PBS and fixed with 4% paraformaldehyde for 30 min at room temperature, followed by immunohistochemical analysis. To detect BrdU incorporation, fixed cells were pretreated with 1M HCl for 30 min at 37° C., and then washed with borate buffer, pH 8.5, for 30 min. We then followed our standard immunohistochemistry protocol^10. BrdU incorporation assay was determined using an Operetta high content imaging system (PerkinElmer, Inc) and Harmony quantification software (PerkinElmer, Inc). The percentage of proliferating cells was defined as the number of BrdU-labeled cells divided by total DAPI-positive cells.
For proliferation assay in vitro, 1 μM MK2206 (Selleckchem, S1078) (AKT phosphorylation inhibitor), or 2 μM Nutlin-3 (Nt3, Selleckchem, 51061) (Mdm2 inhibitor), or 1 μM RG7112 (Selleckchem, S7030) (Mdm2 inhibitor) or YH239-EE (Selleckchem 57489) (4 μM) (Mdm2 inhibitor) was added to proliferating NPCs at 6 hours post-plating. Cells were then pulse labeled 18 hours later with 5 μM 5-bromo-2′-deoxyuridine (BrdU, Sigma-Aldrich, B5002) and incubated for 6 hours in the presence of inhibitor, followed by fixation, staining, and quantification.
Data set [2] concerns Fmr1 KO and wildtype NPCs. Briefly: Differentiation assay of cultured NPCs (Tuj1 neurons, GFAP astrocytes). The data set is classed as cell-based, mouse. The note with it: 4 days.
Protocol: NPCs were isolated from the dentate gyms of 8 to 10-week-old male Fmr1 KO mice and wild-type (wildtype) littermate controls based on our published methods (12, 64). Independently isolated cells serve as biological replicates. Proliferation and differentiation of NPCs was analyzed as described (11, 12, 61). We used only early passage cells (between passage 4 and 10) and only the same passage numbers of wildtype and Fmr1 KO cells. For each experiment, triplicate wells of cells were analyzed, and results were averaged as one data point (n=1). At least 3 independent biological replicates were used (n=3) for statistical analyses.
Proliferation and differentiation of aNPCs were analyzed using our published methods (Guo et al., Nature Med. (2011); Guo et al., Neuron 70, 924-938 (2011); Luo et al., PLoS Genet 6 (2010); Liu et al., Cell Stem Cell 6 (2010)). We used only early passage cells (between passage 4 and 10) and only the same passage numbers of wild type (WT) and Fmr1 KO cells. For each experiment, triplicate wells of cells were analyzed, and results were averaged as one data point (n=1). At least 3 independent experiments (n=3) were performed and used for statistical analyses for each analysis. […] For the differentiation assay, at 24 h post-plating, cells were changed into differentiation medium, Neurobasal A, containing 5 μM forskolin (Sigma-Aldrich, F-6886) and 1 μM retinoic acid (Sigma-Aldrich, R-2625) for 4 d, followed by fixation with 4% paraformaldehyde for 30 min, and then washed with Dulbecco's Phosphate Buffered Saline (DPBS), pH 7.4 for 30 min. Immunocytochemistry staining was carried out as described (Guo et al., Nature Med. (2011); Guo et al., Neuron 70, 924-938 (2011); Luo et al., PLoS Genet 6 (2010); Liu et al., Cell Stem Cell 6 (2010)). Briefly, cells were preblocked using DPBS containing 5% normal goat serum (VECTOR, S-1000) and 0.1% Triton X-100 for 30 min, followed by overnight incubation with primary antibodies: mouse anti-Tuj1 (1:1000, Promega, G712A) and rabbit anti-S100β (1:1000, Dako, Z0334).
After washing with Dulbecco s Phosphate Buffered Saline (DPBS), cells were incubated with secondary antibodies that included goat anti-mouse 568 (1:1000, Invitrogen, A11031), goat anti-rabbit 488 (1:1000, Invitrogen, A11008) followed by counterstaining with the fluorescent nuclear dye 4′,6-diamidino-2′-phenylindole dihydrochloride (DAPI, Sigma-Aldrich, B2261). […] (VECTOR, H-1000), the numbers of Tuj1, GFAP-positive cells were quantified using an Olympus BX51 microscope equipped with a MicroFire digital camera (Optronics) and a motorized stage using a 20× objective lens. The quantification was carried out using an unbiased stereology method with assistance from StereoInvestigator software (MBF Biosciences). The percentage of differentiated cells was calculated as the number of Tuj1- or GFAP-labeled cells divided by the total number of cells stained with DAPI.
The subject of data set [3] is NSCs of Fmr1 KO and wildtype mice. Briefly: In vivo NSC activation in the adult dentate gyrus (GFP+GFAP+MCM2+). Set-up: species or system mouse. The settings on record: 10 mg/kg every other day, 5 injections over 9 days. Here is the method: (§1) All animal procedures were performed according to protocols approved by the University of Wisconsin-Madison Care and Use Committee. All mice were on C57B/L6 genetic background. The Fmr1 KO/Nestin-GFP mice (Fmr1−/y::Nestin-GFP) were created by crossing female Fmr1 heterozygous KO mice (Fmr1+/−) (59) with homozygous Nestin-GFP transgenic males (60). Generation of FMRP inducible conditional mutant mice (Fmr1loxP/y::Nestin-CreERT2::Rosa26-tdt) and tamoxifen injections to induce recombination were performed as described (12). To induce recombination, mice (6-weeks old) received Tamoxifen (Sigma-Aldrich) daily for 5 d (160 mg/kg) as described (12). Nutlin-3 (10 mg/kg) was given to 7-8 week-old mice or 20-week old mice through IP injections every other day for 5 injections and sacrificed at either 24 hours, 4 weeks, 12, or 20 weeks after the last injection. […]
The total numbers of GFP^+ or tdT^+ cells in the dentate gyms of each animal were counted on a Zeiss Apotome microscope using unbiased stereology (StereoInvestigator software, MBF Biosciences, Inc). […] Dentate gyms volume was measured using StereoInvestigator as described (11, 12). […] Briefly, at least 50 GFP^+ or BrdU^+ cells in the dentate gyms were randomly selected, and their colocalization with cell-lineage markers was determined using a Nikon A1 confocal microscope and quantified using ImageJ software (NIH).

Data set [4] deals with Fmr1 KO mice. The data set can be described thus: Novel location test (NLT). The data set is classed as in vivo, mouse. The settings on record: for spatial memory deficits in the novel location test, long-term effect: tested at 24 weeks old. As to the method:
(§2) All animal procedures were performed according to protocols approved by the University of Wisconsin-Madison Care and Use Committee. All mice were on C57B/L6 genetic background. The Fmr1 KO/Nestin-GFP mice (Fmr1−/y::Nestin-GFP) were created by crossing female Fmr1 heterozygous KO mice (Fmr1+/−) (59) with homozygous Nestin-GFP transgenic males (60). Generation of FMRP inducible conditional mutant mice (Fmr1loxP/y::Nestin-CreERT2::Rosa26-tdt) and tamoxifen injections to induce recombination were performed as described (12). To induce recombination, mice (6-weeks old) received Tamoxifen (Sigma-Aldrich) daily for 5 d (160 mg/kg) as described (12). Nutlin-3 (10 mg/kg) was given to 7-8 week-old mice or 20-week old mice through IP injections every other day for 5 injections and sacrificed at either 24 hours, 4 weeks, 12, or 20 weeks after the last injection. For NSC differentiation analysis, mice also received four BrdU injections (100 mg/kg) between day 2 and 3 of Nutlin-3 injections. To induce recombination in FMRP inducible conditional mutant mice (Fmr1^loxP/y::Nestin-CreER^T2::Rosa26-tdt) mice, mice 6-weeks old male mice received Tamoxifen (Sigma-Aldrich) daily for 5 days (160 mg kg-1 i.p., 30 mg ml^−1 in 10% ethanol mixed with sunflower oil, SigmaAldrich) based on a published procedure (13). BrdU (Sigma-Aldrich, B5002) was made in a concentration of 20 mg/mL in PBS. Nutlin-3 (Nt3, Cayman Chemical, 10004372) was made in a concentration of 100 mg/mL in dimethyl sulfoxide (DMSO).
This test measures spatial memory through an evaluation of the ability of mice to recognize the new location of a familiar object with respect to spatial cues. The experimental procedure was performed as previously described (65). The mice were exposed to 2 identical objects for 6 minutes during the acquisition phase 3 times and tested at 3 minutes later. Object preference was evaluated during this session. During the trial session, one of the objects was moved to a novel location, and the mice were allowed to explore the objects for 6 minutes, and the total time spent exploring each object was measured. Exploration was considered as any investigative behavior (i.e., head orientation, sniffing occurring within <1.0 cm) or deliberate contact occurring with each object. The discrimination index was calculated as the percentage of time spent investigating the object in the new location minus the percentage of time spent investigating the object in the old location: discrimination index=(Novel Location exploration time/total exploration time×100)−(old Location exploration time/total exploration time×100). All experiments were videotaped and scored by scientists who were blinded to experimental conditions.

Data set [5] concerns Fmr1 KO mice. Briefly: Novel object recognition (NOR) test. The data set is classed as in vivo, mouse. Here is the method:
as §2
This test is based on the natural propensity of rodents to preferentially explore novel objects over familiar ones. The experimental procedure was performed as previously described (38). On the first day, mice were habituated for 10 min to the maze in which the task was performed. On the second day, mice were put back in the maze for 10 min, and two identical objects were presented. 24 hours later, one of the familiar objects was replaced with a novel object, and the mice were again placed in the maze and were allowed to explore for 10 min, and the total time spent exploring each of the two objects (novel and familiar) was measured. The discrimination index was calculated as the difference between the percentages of time spent investigating the novel object and the time spent investigating the familiar objects: discrimination index=(novel object exploration time/total exploration time×100)−(familiar object exploration time/total exploration time×100). All experiments were videotaped and scored by scientists who were blinded to experimental conditions.

The nature of data set [6]: Overall health and body weight of treated mice. The note with it: wildtype and Fmr1 KO mice; Nutlin-3 10 mg/kg, 5 injections. Type of data set: in vivo, mouse. Here is the method: as §2, with “Nutlin-3 (Nt3, Cayman Chemical, 10004372) was made in a concentration of 100 mg/mL in dimethyl sulfoxide (DMSO).” left out
Data set [7] is described as follows: Open field activity test. The data set is classed as in vivo, mouse. The note with it: wildtype and Fmr1 KO mice; Nutlin-3 10 mg/kg, 5 injections. As to the method: as §1, with “injection. For NSC differentiation analysis, mice also received four BrdU injections (100 mg/kg) between day 2 and 3 of Nutlin-3 injections.” for “injection.”
Mice were subjected to open field testing for evaluation of locomotor activity and general anxiety. Activity was recorded at 10-min intervals for total 30 min by means of a computer-operated tracking system (Omnitech Electronics Inc, USA) Total distance moved, and ratio of entry time into the Centre and periphery of arena were measured.

The mark [8] stands for this setting: wildtype NPCs, 1 μM MK2206, 2 μM Nutlin-3.
The mark [9] stands for this setting: Fmr1 KO NPCs, 1 μM MK2206, 2 μM Nutlin-3, 1 μM RG7112.
The mark [10] stands for this setting: Fmr1 KO mice treated at 20 weeks old (middle aged), 24-weeks-old at test.
The mark [11] stands for this setting: Fmr1 KO mice, treated as young adults, tested 4 weeks later.
[12] abbreviates: wildtype mice, tested 4 weeks after treatment.

In the case of `COc1ccc(C2=N[C@@H](c3ccc(Cl)cc3)[C@@H](c3ccc(Cl)cc3)N2C(=O)N2CCNC(=O)C2)c(OC(C)C)c1` [Nutlin-3], the “cell proliferation (BrdU+ cells)” value was “reduced the proliferation” in data set [1] (Fmr1 KO NPCs, 1 μM MK2206, 2 μM Nutlin-3, 1 μM RG7112, 4 μM YH239-EE) and “without a significant effect on wildtype NPCs” in data set [1] (setting [8]). Moreover, the “astroglial differentiation (GFAP+)” value was “specifically rescued astroglial differentiation phenotypes” in data set [2] (setting [9]) and “without a significant effect on wildtype NPCs” in data set [2] (setting [8]). Further, the “neuronal differentiation (Tuj1+)” value is listed as “rescued neuronal differentiation phenotypes” in data set [2] (setting [9]) and “without a significant effect on wildtype NPCs” in data set [2] (setting [8]). Besides, the “NSC activation (percentage of activated NSCs among total NSCs)” value in data set [3] (Fmr1 KO mice) was “specifically reduced NSC activation in Fmr1 KO mice to wildtype levels”; in data set [3] (wildtype mice), “no significant effect on wildtype mice”. Further, the “spatial memory deficits in the novel location test, long-term effect” value in data set [4] (Fmr1 KO mice treated at 8 weeks old) and in data set [4] (Fmr1 conditional KO mice treated at 8 weeks old) was “long-term effects to fully rescue spatial memory deficits” throughout. For the same compound, the “spatial memory deficits in the novel location test” value in data set [4] (setting [10]) is “fully rescued spatial memory deficits”. Further, the figures for the “performance on the novel location test (discrimination index)” value in data set [4] (setting [11]) and in data set [4] (setting [12]) were “rescued performance” and “no significant effect on wildtype mice”, respectively. The “cognitive deficits in the NOR test, long-term effect” value in data set [5] (Fmr1 KO mice treated at 8 weeks old, tested at 24 weeks old) was “long-term effects to fully rescue cognitive deficits”. Also, in data set [5] (setting [10]), the “cognitive deficits in the NOR test” value is “fully rescued cognitive deficits”. Besides, the “performance on the novel object recognition test (discrimination index)” value in data set [5] (setting [11]) is “rescued performance”; in data set [5] (setting [12]) it was “no significant effect on wildtype mice”. The “overall health and body weight” value in data set [6] is “no significant effect on overall health and body weight”. Besides, the “locomotor activity and anxiety (total distance, center/periphery entry ratio)” value in data set [7] was “no significant effect”.

The values are drawn from patent US10350204B2, “Methods for treating cognitive deficits associated with fragile X syndrome” (Wisconsin Alumni Research Foundation, priority 2015, dated 2019).
